Assay results published in publication PMC6199744, “Development of Chemical Proteomics for the Folateome and Analysis of the Kinetoplastid Folateome” (ACS Infectious Diseases, 2018).

Test system: L. major lysate proteins
Test: Multitargeted bead mixture chemoproteomics, single concentration competition, proteome-wide
Type: binding
Details: for fold change / fold change relative to vehicle control: vehicle control = 1; for fold change relative to vehicle control: competition with free ligand

Question: For `Nc1nc2cccc(-c3ccccc3)c2n1Cc1ccc(Cl)c(Cl)c1` [compound 3], which fold change (protein LINJ.36.7350 […] OXIDASE SUBUNIT I) is on record?
Answer: The fold change was 0.96.

Question: What about the fold change (protein LMJF.01.0520 LONG-CHAIN-FATTY-ACID-COA LIGASE, PUTATIVE) of the same compound?
Answer: Its fold change is 0.91.

Question: What about the “fold change vs vehicle control” value (protein LMJF.02.0460 HY[…], CONSERVED) of the same compound?
Answer: Its value is 1.05.

Question: And the “fold change vs vehicle control” value (protein LMJF.03.0230 LONG CHAIN FATTY ACYL COA SYNTHETASE, PUTATIVE)?
Answer: The value was 0.98.

Question: And the “fold change vs vehicle control” value (protein LMJF.03.0630 HY[…], CONSERVED)?
Answer: The value was 0.95.

Question: And the fold change (protein LMJF.05.0780 HY[…], CONSERVED)?
Answer: The fold change was 1.06.

Question: And the fold change (protein LMJF.06.0010 HISTONE H4)?
Answer: The fold change was 1.11.

Question: And the fold change (protein LMJF.06.0140 […] 6 SUBUNIT, PUTATIVE)?
Answer: Its fold change is 0.69.

Question: And the fold change (protein LMJF.06.0650 […], PUTATIVE)?
Answer: Its fold change is 1.

Question: And the “fold change vs vehicle control” value (protein LMJF.08.0510 RIBOSE-PHOSPHATE PYROPHOSPHOKINASE, PUTATIVE)?
Answer: The value was 0.99.

Question: What about the “fold change vs vehicle control” value (protein LMJF.08.0550 T[…]-LIKE PROTEIN) of the same compound?
Answer: The value was 1.01.

Question: What about the “fold change vs vehicle control” value (protein LMJF.08.1100 HY[…], CONSERVED) of the same compound?
Answer: Its value is 0.98.

Question: What about the “fold change relative to vehicle control” value (protein LMJF.09.1120 MIT[…] BINDING PROTEIN 2,MRP2, GBP25) of the same compound?
Answer: Its value is 1.01.

Question: And the “fold change vs vehicle control” value (protein LMJF.09.1260 HY[…], CONSERVED)?
Answer: Its value is 0.98.

Question: And the fold change (protein LMJF.10.1010 NUCLEOSIDE PHOSPHORYLASE-LIKE PROTEIN)?
Answer: The fold change was 0.97.

Question: And the fold change (protein LMJF.10.1240 HY[…], CONSERVED)?
Answer: The fold change was 0.91.

Question: And the “fold change vs vehicle control” value (protein LMJF.11.0130 NGG1 I[…] 3-LIKE PROTEIN)?
Answer: The value was 0.94.

Question: And the “fold change vs vehicle control” value (protein LMJF.11.0240 […] 7 SUBUNIT, PUTATIVE)?
Answer: The value was 1.1.

Question: And the fold change (protein LMJF.11.1050 PRETRA[…], ALPHA SUBUNIT, PUTATIVE)?
Answer: The fold change was 1.24.

Question: What about the “fold change vs vehicle control” value (protein LMJF.11.1110 60S RIBOSOMAL PROTEIN L28, PUTATIVE) of the same compound?
Answer: The value was 1.17.

Question: What about the “fold change vs vehicle control” value (protein LMJF.12.0210 […] […]1L8 3, PUTATIVE) of the same compound?
Answer: Its value is 1.07.

Question: What about the “fold change vs vehicle control” value (protein LMJF.12.0280 ORNITHINE DECARBOXYLASE, PUTATIVE) of the same compound?
Answer: Its value is 1.

Question: What about the “fold change vs vehicle control” value (protein LMJF.13.0450 HY[…], CONSERVED) of the same compound?
Answer: Its value is 0.93.

Question: And the “fold change vs vehicle control” value (protein LMJF.13.0870 MIT[…] ALPHA SUBUNIT, PUTATIVE)?
Answer: Its value is 1.33.

Question: What about the “fold change vs vehicle control” value (protein LMJF.14.0130 INOSINE-GUANINE […], PUTATIVE) of the same compound?
Answer: The value was 0.93.

Question: What about the fold change (protein LMJF.14.0310 […] 3 SUBUNIT, PUTATIVE) of the same compound?
Answer: The fold change was 0.98.

Question: And the fold change (protein LMJF.14.0650 FATTY ACID ELONGASE, PUTATIVE)?
Answer: The fold change was 1.11.

Question: And the fold change (protein LMJF.14.0660 FATTY ACID ELONGASE, PUTATIVE)?
Answer: The fold change was 1.17.

Question: What about the fold change (protein LMJF.14.0705 FATTY ACID ELONGASE, PUTATIVE) of the same compound?
Answer: Its fold change is 1.24.

Question: What about the fold change (protein LMJF.14.0740 FATTY ACID ELONGASE, PUTATIVE) of the same compound?
Answer: The fold change was 1.23.

Question: What about the “fold change relative to vehicle control” value (protein LMJF.14.1120 KINESIN K39, PUTATIVE) of the same compound?
Answer: The value was 1.49.

Question: What about the “fold change vs vehicle control” value (protein LMJF.15.0230 LYSYL-TRNA SYNTHETASE, PUTATIVE) of the same compound?
Answer: Its value is 1.01.

Question: What about the “fold change vs vehicle control” value (protein LMJF.15.0280 RIBONUCLEOPROTEIN P18, MIT[…], PUTATIVE) of the same compound?
Answer: The value was 0.99.

Question: What about the fold change (protein LMJF.15.1010 GLUTAMATE DEHYDROGENASE) of the same compound?
Answer: Its fold change is 1.08.

Question: What about the “fold change relative to vehicle control” value (protein LMJF.16.0520 HY[…], CONSERVED) of the same compound?
Answer: The value was 1.36.

Question: And the fold change (protein LMJF.16.0540 ASPARTATE […], PUTATIVE)?
Answer: Its fold change is 1.04.

Question: And the “fold change vs vehicle control” value (protein LMJF.16.0950 SUCROSE-PHOSPHATE SYNTHASE-LIKE PROTEIN)?
Answer: Its value is 1.31.

Question: What about the “fold change vs vehicle control” value (protein LMJF.16.0960 HY[…], CONSERVED) of the same compound?
Answer: Its value is 0.93.

Question: What about the fold change (protein LMJF.16.1180 COATOMER DELTA SUBUNIT-LIKE PROTEIN) of the same compound?
Answer: Its fold change is 1.08.

Question: And the fold change (protein LMJF.17.0010 HY[…], CONSERVED)?
Answer: The fold change was 1.07.

Question: And the “fold change vs vehicle control” value (protein LMJF.18.0510 ACONITASE, PUTATIVE)?
Answer: Its value is 1.01.

Question: And the “fold change vs vehicle control” value (protein LMJF.18.0890 RAB7 GTP BINDING PROTEIN, PUTATIVE)?
Answer: Its value is 0.91.

Question: What about the fold change (protein LMJF.18.1130 RAS-RELATED PROTEIN RAB-5, PUTATIVE) of the same compound?
Answer: Its fold change is 1.

Question: What about the fold change (protein LMJF.19.1120 […]-ATP-ASE SUBUNIT, PUTATIVE) of the same compound?
Answer: Its fold change is 0.82.

Question: And the “fold change vs vehicle control” value (protein LMJF.19.1160 HY[…], CONSERVED)?
Answer: Its value is 3.16.

Question: What about the “fold change vs vehicle control” value (protein LMJF.19.1530 PEPT[…]-LIKE PROTEIN) of the same compound?
Answer: The value was 1.01.

Question: What about the fold change (protein LMJF.20.0100 PHOSPH[…] C, GLYCOSOMAL) of the same compound?
Answer: The fold change was 1.01.

Question: What about the “fold change vs vehicle control” value (protein LMJF.21.0720 HY[…], CONSERVED) of the same compound?
Answer: Its value is 0.93.

Question: What about the fold change (protein LMJF.21.1250 ADENYLATE KINASE, PUTATIVE) of the same compound?
Answer: The fold change was 0.71.

Question: What about the fold change (protein LMJF.21.1555 HY[…], CONSERVED) of the same compound?
Answer: The fold change was 1.05.

Question: What about the fold change (protein LMJF.21.1580 HY[…], UNKNOWN FUNCTION) of the same compound?
Answer: Its fold change is 1.2.

Question: What about the “fold change vs vehicle control” value (protein LMJF.21.1700 […] 2 SUBUNIT, PUTATIVE) of the same compound?
Answer: Its value is 1.03.

Question: And the fold change (protein LMJF.22.0230 AMINO ACID PERMEASE, PUTATIVE)?
Answer: The fold change was 1.26.

Question: What about the fold change (protein LMJF.22.0570 […] SUBUNIT 1, PUTATIVE) of the same compound?
Answer: The fold change was 0.99.
